Source: ChEMBL document CHEMBL3875173, “Phenyltetrazolyl-phenylamides: Substituent impact on modulation capability and selectivity toward the efflux protein ABCG2 and investigation of interaction with the transporter” (Eur J Med Chem, 2016)
pIC50: −log10 of the molar value.

Assays:
ABCG2 [1] = target: T1, ABCG2 (Homo sapiens, UniProt Q9UNQ0); assay: Inhibition of recombinant human GFP-fused ABCG2 expressed in MDCK2 cells assessed as reduction in Hoechst 33342 efflux at 10 uM preincubated for 30 mins followed by Hoechst 33342 addition measured immediately at 60 sec time interval for 120 mins by fluorescence assay relative to XR9577; type: cell-based, MDCK-II; settings: MDCK2 cells expressing recombinant human GFP-fused ABCG2, probe Hoechst 33342, read-out: Imax
T1 sequence (Q9UNQ0 whole entry): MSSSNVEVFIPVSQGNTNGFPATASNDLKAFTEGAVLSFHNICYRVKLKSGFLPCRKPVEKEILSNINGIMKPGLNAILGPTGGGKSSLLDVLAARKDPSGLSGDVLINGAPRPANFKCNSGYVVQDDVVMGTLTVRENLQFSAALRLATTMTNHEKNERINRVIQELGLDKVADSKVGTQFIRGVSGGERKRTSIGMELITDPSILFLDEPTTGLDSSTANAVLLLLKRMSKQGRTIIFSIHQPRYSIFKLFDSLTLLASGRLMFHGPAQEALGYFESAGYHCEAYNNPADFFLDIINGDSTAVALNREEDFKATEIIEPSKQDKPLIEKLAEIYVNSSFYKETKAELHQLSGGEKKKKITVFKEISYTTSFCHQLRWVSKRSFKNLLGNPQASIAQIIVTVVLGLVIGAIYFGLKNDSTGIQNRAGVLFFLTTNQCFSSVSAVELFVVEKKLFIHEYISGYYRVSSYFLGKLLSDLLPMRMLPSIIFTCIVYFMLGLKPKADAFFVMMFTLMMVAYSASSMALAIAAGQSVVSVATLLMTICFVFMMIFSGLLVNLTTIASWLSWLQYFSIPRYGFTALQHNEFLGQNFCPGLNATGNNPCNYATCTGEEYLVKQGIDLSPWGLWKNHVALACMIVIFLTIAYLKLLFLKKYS

[2] = target: T2, Broad substrate specificity ATP-binding cassette transporter ABCG2 (Homo sapiens, UniProt Q9UNQ0); assay: Inhibition of recombinant human GFP-fused ABCG2 expressed in MDCK2 cells assessed as reduction in Hoechst 33342 efflux preincubated for 30 mins followed by Hoechst 33342 addition measured immediately at 60 sec time interval for 120 mins by fluorescence assay; type: cell-based, MDCK-II
T2 sequence (Q9UNQ0 whole entry): T1 sequence (Q9UNQ0 whole entry)

ABCB1 [3] = target: T3, ABCB1 (Homo sapiens, UniProt P08183); assay: Inhibition of ABCB1 in human A2780/ADR cells assessed as reduction in calcien-AM efflux at 10 uM preincubated for 30 mins followed by calcien-AM addition measured immediately at 60 sec time interval for 60 mins by fluorescence assay relative to cyclosporine A; type: cell-based; settings: probe calcein-AM (printed calcien-AM), read-out: Imax
T3 sequence (P08183 whole entry): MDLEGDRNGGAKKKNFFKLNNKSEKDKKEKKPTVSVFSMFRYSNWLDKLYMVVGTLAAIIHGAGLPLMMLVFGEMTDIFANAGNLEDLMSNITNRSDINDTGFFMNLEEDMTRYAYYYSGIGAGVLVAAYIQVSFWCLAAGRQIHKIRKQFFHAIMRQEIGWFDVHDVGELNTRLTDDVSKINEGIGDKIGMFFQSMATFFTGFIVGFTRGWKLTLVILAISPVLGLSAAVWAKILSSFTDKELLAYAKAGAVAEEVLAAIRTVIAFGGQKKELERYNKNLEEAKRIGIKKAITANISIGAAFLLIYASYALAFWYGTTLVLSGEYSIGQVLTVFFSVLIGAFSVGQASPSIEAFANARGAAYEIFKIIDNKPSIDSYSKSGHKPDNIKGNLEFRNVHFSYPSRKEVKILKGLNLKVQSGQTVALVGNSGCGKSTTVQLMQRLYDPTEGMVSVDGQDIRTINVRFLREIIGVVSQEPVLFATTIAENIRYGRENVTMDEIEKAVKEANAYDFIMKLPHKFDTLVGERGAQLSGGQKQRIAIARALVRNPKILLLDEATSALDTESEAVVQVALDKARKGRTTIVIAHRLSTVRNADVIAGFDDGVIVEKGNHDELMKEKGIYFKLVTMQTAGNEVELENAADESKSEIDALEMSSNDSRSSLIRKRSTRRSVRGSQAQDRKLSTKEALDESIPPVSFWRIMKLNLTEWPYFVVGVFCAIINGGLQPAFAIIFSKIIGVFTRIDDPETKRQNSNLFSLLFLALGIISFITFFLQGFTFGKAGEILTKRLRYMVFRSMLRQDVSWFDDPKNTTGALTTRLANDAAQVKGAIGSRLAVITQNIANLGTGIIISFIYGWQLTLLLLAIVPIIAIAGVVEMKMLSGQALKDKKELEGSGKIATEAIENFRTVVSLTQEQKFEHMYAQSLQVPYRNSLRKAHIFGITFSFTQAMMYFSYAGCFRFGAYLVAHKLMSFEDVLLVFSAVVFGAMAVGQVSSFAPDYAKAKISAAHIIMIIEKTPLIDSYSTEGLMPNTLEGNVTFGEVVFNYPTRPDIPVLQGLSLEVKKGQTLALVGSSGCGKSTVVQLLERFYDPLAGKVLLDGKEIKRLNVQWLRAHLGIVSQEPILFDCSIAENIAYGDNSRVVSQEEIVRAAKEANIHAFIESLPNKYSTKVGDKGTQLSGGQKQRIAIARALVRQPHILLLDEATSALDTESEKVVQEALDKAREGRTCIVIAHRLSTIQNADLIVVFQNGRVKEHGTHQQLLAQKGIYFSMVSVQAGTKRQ

[4] = target: ATP-dependent translocase ABCB1 (Homo sapiens, UniProt P08183); assay: Inhibition of ABCB1 in human A2780/ADR cells assessed as reduction in calcien-AM efflux preincubated for 30 mins followed by calcien-AM addition measured immediately at 60 sec time interval for 60 mins by fluorescence assay; type: cell-based
Chain of ATP-dependent translocase ABCB1 (P08183 whole entry, the tested form may be a part): as the sequence (P08183 whole entry) above

[5] = target: T2, Broad substrate specificity ATP-binding cassette transporter ABCG2; assay: Inhibition of recombinant human GFP-fused ABCG2 expressed in MDCK2 cells assessed as reduction in pheophorbide A efflux preincubated for 30 mins followed by pheophorbide A addition measured after 2 hrs by flow cytometry; type: cell-based, MDCK-II
ABCG2 [6] = target: T1, ABCG2; assay: Inhibition of recombinant human GFP-fused ABCG2 expressed in MDCK2 cells assessed as reduction in pheophorbide A efflux at 10 uM preincubated for 30 mins followed by pheophorbide A addition measured after 2 hrs by flow cytometry relative to XR9577; type: cell-based, MDCK-II; settings: MDCK2 cells expressing recombinant human GFP-fused ABCG2, probe pheophorbide A, read-out: Imax
ABCB1 [7] = target: T3, ABCB1; assay: Potency index, ratio of cyclosporine A IC50 to compound IC50 for ABCB1 in human A2780/ADR cells; type: cell-based; settings: read-out: Ratio IC50
[8] = target: T2, Broad substrate specificity ATP-binding cassette transporter ABCG2; assay: Competitive inhibition of recombinant human GFP-fused ABCG2 expressed in MDCK2 cells assessed as reduction in Hoechst 33342 efflux at 0.01 to 0.1 uM preincubated for 30 mins followed by addition of varying levels of Hoechst 33342 by Lineweaver-Burk plot analysis; type: cell-based; settings: mdck-ii
[9] = target: T2, Broad substrate specificity ATP-binding cassette transporter ABCG2; assay: Non-competitive inhibition of recombinant human GFP-fused ABCG2 expressed in MDCK2 cells assessed as reduction in pheophorbide A efflux at 0.0178 to 0.1 uM preincubated for 30 mins followed by addition of varying levels of pheophorbide A by Lineweaver-Burk plot analysis; type: cell-based; settings: mdck-ii
ABCG2 [10] = target: T1, ABCG2; assay: Potency index, ratio of Ko143 IC50 to compound IC50 for recombinant human GFP-fused ABCG2 expressed in MDCK2 cells assessed as reduction in pheophorbide A efflux; type: cell-based; settings: MDCK2 cells expressing recombinant human GFP-fused ABCG2, probe pheophorbide A, read-out: Ratio IC50
ABCG2 [11] = target: T1, ABCG2; assay: Potency index, ratio of Ko143 IC50 to compound IC50 for recombinant human GFP-fused ABCG2 expressed in MDCK2 cells assessed as reduction in Hoechst 33342 efflux; type: cell-based; settings: MDCK2 cells expressing recombinant human GFP-fused ABCG2, probe Hoechst 33342, read-out: Ratio IC50

CCOc1ccc(-n2nnc(-c3ccccc3NC(=O)c3ccccc3[N+](=O)[O-])n2)cc1
Emax at 2 h, 10 µM (ABCG2 [1]): 72% | pIC50 [2]: 6.51

COc1ccc(C(=O)Nc2ccccc2-c2nnn(-c3ccc(OC)c(OC)c3)n2)cc1
inhibition at 1 h, 10 µM (ABCB1 [3]): ≤ 25% | Emax at 2 h, 10 µM (ABCG2 [1]): 100% | pIC50 [2]: 6.50 | pIC50 [4]: 5.49

COc1ccc(-n2nnc(-c3ccccc3NC(=O)c3ccccc3[N+](=O)[O-])n2)cc1
inhibition at 1 h, 10 µM (ABCB1 [3]): ≤ 25% | pIC50 [5]: 6.51 | Emax at 2 h, 10 µM (ABCG2 [6]): 61% | Emax at 2 h, 10 µM (ABCG2 [1]): 76% | pIC50 [2]: 6.58 | pIC50 [4]: 5.21

O=C(Nc1ccccc1-c1nnn(-c2ccccc2)n1)c1ccccc1[N+](=O)[O-]
inhibition at 1 h, 10 µM (ABCB1 [3]): < 10% | pIC50 [5]: 6.34 | Emax at 2 h, 10 µM (ABCG2 [6]): 76% | Emax at 2 h, 10 µM (ABCG2 [1]): 57% | pIC50 [2]: 6.55

CCCc1ccc(C(=O)Nc2ccccc2-c2nnn(-c3ccccc3)n2)cc1
inhibition at 1 h, 10 µM (ABCB1 [3]): ≤ 25% | pIC50 [5]: 7.02 | Emax at 2 h, 10 µM (ABCG2 [6]): 85% | Emax at 2 h, 10 µM (ABCG2 [1]): 100% | pIC50 [2]: 6.67 | pIC50 [4]: 5.09

CCCc1ccc(C(=O)Nc2ccccc2-c2nnn(-c3ccc(O)cc3)n2)cc1
inhibition at 1 h, 10 µM (ABCB1 [3]): ≤ 25% | pIC50 [5]: 6.89 | Emax at 2 h, 10 µM (ABCG2 [6]): 107% | Emax at 2 h, 10 µM (ABCG2 [1]): 106% | selectivity ratio (ABCB1 [7]): 3 | pIC50 [2]: 6.69 | pIC50 [4]: 6.36

CCCc1ccc(C(=O)Nc2ccccc2-c2nnn(-c3ccc(SC)cc3)n2)cc1
pIC50 [5]: 6.17 | Emax at 2 h, 10 µM (ABCG2 [6]): 69% | Emax at 2 h, 10 µM (ABCG2 [1]): 76% | pIC50 [2]: 6.11

COc1ccc(C(=O)Nc2ccccc2-c2nnn(-c3ccc(Oc4ccccc4)cc3)n2)cc1
pIC50 [2]: < 5.00

COc1ccc(C(=O)Nc2ccccc2-c2nnn(-c3ccccc3)n2)cc1
inhibition at 1 h, 10 µM (ABCB1 [3]): ≤ 25% | pIC50 [5]: 6.68 | Emax at 2 h, 10 µM (ABCG2 [6]): 93% | Emax at 2 h, 10 µM (ABCG2 [1]): 101% | pIC50 [2]: 6.70 | inhibition (INH) [8]: Active | inhibition (INH) [9]: Active | pIC50 [4]: 5.26

O=C(Nc1ccccc1-c1nnn(-c2ccccc2)n1)c1ccc(C(F)(F)F)cc1
pIC50 [5]: 5.44 | Emax at 2 h, 10 µM (ABCG2 [6]): 100% | Emax at 2 h, 10 µM (ABCG2 [1]): 100% | pIC50 [2]: 5.36

O=C(Nc1ccccc1-c1nnn(-c2ccccc2)n1)c1ccccc1
inhibition at 1 h, 10 µM (ABCB1 [3]): ≤ 25% | pIC50 [5]: 7.19 | Emax at 2 h, 10 µM (ABCG2 [6]): 109% | Emax at 2 h, 10 µM (ABCG2 [1]): 90% | selectivity ratio (ABCG2 [10]): 3 to 4 | pIC50 [2]: 7.17 | selectivity ratio (ABCG2 [11]): 3 to 4 | pIC50 [4]: 4.66

CCCc1ccc(C(=O)Nc2ccccc2-c2nnn(-c3ccc(Oc4ccccc4)cc3)n2)cc1
pIC50 [2]: < 5.00

CCOc1ccc(-n2nnc(-c3ccccc3NC(=O)c3ccc(OC)cc3)n2)cc1
Emax at 2 h, 10 µM (ABCG2 [1]): 50% | pIC50 [2]: 6.10

COc1ccc(-n2nnc(-c3ccccc3NC(=O)c3ccc(C(F)(F)F)cc3)n2)cc1OC
inhibition at 1 h, 10 µM (ABCB1 [3]): ≤ 25% | Emax at 2 h, 10 µM (ABCG2 [1]): 80% | pIC50 [2]: 6.48 | pIC50 [4]: 4.99

COc1ccc(-n2nnc(-c3ccccc3NC(=O)c3cccc([N+](=O)[O-])c3)n2)cc1
pIC50 [5]: 6.61 | Emax at 2 h, 10 µM (ABCG2 [6]): 56% | Emax at 2 h, 10 µM (ABCG2 [1]): 57% | pIC50 [2]: 6.77

CSc1ccc(-n2nnc(-c3ccccc3NC(=O)c3ccc(C(F)(F)F)cc3)n2)cc1
pIC50 [2]: < 5.00

O=C(Nc1ccccc1-c1nnn(-c2ccccc2)n1)c1cccc([N+](=O)[O-])c1
inhibition at 1 h, 10 µM (ABCB1 [3]): ≤ 25% | pIC50 [5]: 6.91 | Emax at 2 h, 10 µM (ABCG2 [6]): 98% | Emax at 2 h, 10 µM (ABCG2 [1]): 91% | pIC50 [2]: 6.90 | pIC50 [4]: 5.03

COc1ccc(-n2nnc(-c3ccccc3NC(=O)c3ccccc3)n2)cc1OC
inhibition at 1 h, 10 µM (ABCB1 [3]): ≤ 25% | pIC50 [5]: 6.67 | Emax at 2 h, 10 µM (ABCG2 [6]): 95% | Emax at 2 h, 10 µM (ABCG2 [1]): 104% | pIC50 [2]: 6.64 | pIC50 [4]: 5.39

O=C(Nc1ccccc1-c1nnn(-c2ccccc2)n1)c1ccc([N+](=O)[O-])cc1
pIC50 [5]: 6.49 | Emax at 2 h, 10 µM (ABCG2 [6]): 69% | Emax at 2 h, 10 µM (ABCG2 [1]): 60% | pIC50 [2]: 6.82

COc1ccc(C(=O)Nc2ccccc2-c2nnn(-c3ccc(C(C)C)cc3)n2)cc1
inhibition at 1 h, 10 µM (ABCB1 [3]): ≤ 25% | pIC50 [5]: 6.88 | Emax at 2 h, 10 µM (ABCG2 [6]): 95% | Emax at 2 h, 10 µM (ABCG2 [1]): 97% | pIC50 [2]: 6.87 | pIC50 [4]: 4.71

CSc1ccc(-n2nnc(-c3ccccc3NC(=O)c3ccccc3[N+](=O)[O-])n2)cc1
inhibition at 1 h, 10 µM (ABCB1 [3]): ≤ 25% | pIC50 [5]: 6.93 | Emax at 2 h, 10 µM (ABCG2 [6]): 77% | Emax at 2 h, 10 µM (ABCG2 [1]): 91% | pIC50 [2]: 6.66 | pIC50 [4]: 5.01

CSc1ccc(-n2nnc(-c3ccccc3NC(=O)c3ccc([N+](=O)[O-])cc3)n2)cc1
pIC50 [2]: < 5.00

COc1ccc(C(=O)Nc2ccccc2-c2nnn(-c3ccc(Cl)cc3)n2)cc1
Emax at 2 h, 10 µM (ABCG2 [1]): 59% | pIC50 [2]: 6.65

CC(C)c1ccc(-n2nnc(-c3ccccc3NC(=O)c3ccc(C(F)(F)F)cc3)n2)cc1
pIC50 [2]: < 5.00

COc1ccc(C(=O)Nc2ccccc2-c2nnn(-c3ccccc3)n2)cc1OC
pIC50 [5]: 6.29 | Emax at 2 h, 10 µM (ABCG2 [6]): 86% | Emax at 2 h, 10 µM (ABCG2 [1]): 102% | pIC50 [2]: 6.08

COc1ccc(C(=O)Nc2ccccc2-c2nnn(-c3ccc(SC)cc3)n2)cc1
inhibition at 1 h, 10 µM (ABCB1 [3]): ≤ 25% | pIC50 [5]: 6.60 | Emax at 2 h, 10 µM (ABCG2 [6]): 85% | Emax at 2 h, 10 µM (ABCG2 [1]): 100% | pIC50 [2]: 6.88 | pIC50 [4]: 5.38

O=C(Nc1ccccc1-c1nnn(-c2ccc(Cl)cc2)n1)c1ccc([N+](=O)[O-])cc1
pIC50 [2]: < 5.00

CCCc1ccc(C(=O)Nc2ccccc2-c2nnn(-c3ccc(OC(=O)c4ccc(CCC)cc4)cc3)n2)cc1
pIC50 [2]: < 5.00

COc1ccc(C(=O)Nc2ccccc2-c2nnn(-c3ccc(OC)cc3)n2)cc1
inhibition at 1 h, 10 µM (ABCB1 [3]): ≤ 25% | pIC50 [5]: 6.52 | Emax at 2 h, 10 µM (ABCG2 [6]): 92% | Emax at 2 h, 10 µM (ABCG2 [1]): 100% | pIC50 [2]: 6.70 | pIC50 [4]: 5.54
